Target: GABAA receptor
Experiment: Steroid inhibition of [35S]-TBPS binding
Conditions: rat brain cortical membranes, 3 nM [35S]-TBPS, in the presence of 5 mM GABA
Description: Steroid Inhibition of TBPS Binding
Briefly, cortices are rapidly removed following decapitation of carbon dioxide-anesthetized Sprague-Dawley rats ([…]). The cortices are homogenized in 10 volumes of ice-cold 0.32 M sucrose using a glass/teflon homogenizer and centrifuged at 1500×g for 10 min at 4° C. The resultant supernatants are centrifuged at 10,000×g for 20 min at 4° C. to obtain the P2 pellets. The P2 pellets are resuspended in 200 mM NaCl/50 mM Na—K phosphate pH 7.4 buffer and centrifuged at 10,000×g for 10 min at 4° C. This washing procedure is repeated twice and the pellets are resuspended in 10 volumes of buffer. Aliquots ([…]) of the membrane suspensions are incubated with 3 nM [^35S]-TBPS and […] aliquots of test drug dissolved in dimethyl sulfoxide (DMSO) (final 0.5%) in the presence of 5 mM GABA. The incubation is brought to a final volume of 1.0 mL with buffer. […] Following a 90 min incubation at room temp, the assays are terminated by filtration through glass fiber filters (Schleicher and Schuell No. 32) using a cell harvester (Brandel) and rinsed three times with ice-cold buffer. Filter bound radioactivity is measured by liquid scintillation spectrometry. Non-linear curve fitting of the overall data for each drug averaged for each concentration is done using Prism (GraphPad).
Various compounds are or can be screened to determine their potential as modulators of [^35S]-TBPS binding in vitro. These assays are or can be performed in accordance with the above discussed procedures.

Q: CC[C@H](NC(=O)[C@H]1CC[C@H]2[C@@H]3CC[C@@H]4C[C@](C)(O)CC[C@@H]4[C@H]3CC[C@]12C)c1ccc(F)cc1 (single isomer, unassigned) [Compound 33] was tested. Which IC50 did it give?
A: The IC50 was 0.1 to 0.5 µM.

Q: Which IC50 does the source give for CC[C@@H](NC(=O)[C@H]1CC[C@H]2[C@@H]3CC[C@@H]4C[C@](C)(O)CC[C@@H]4[C@H]3CC[C@]12C)c1ccc(F)cc1 (single isomer, unassigned) [Compound 34] here?
A: The IC50 was 0.1 to 0.5 µM.

Q: For C[C@@]1(O)CC[C@H]2[C@@H](CC[C@@H]3[C@@H]2CC[C@@]2(C)[C@H]3CCC2(O)c2ccccc2)C1 (stereo in doubt) [Compound 100], which IC50 is on record?
A: The IC50 was over 0.5 µM.

Q: C[C@@]1(O)CC[C@H]2[C@H](CC[C@@H]3[C@@H]2CC[C@]2(C)[C@@H](C(=O)NCc4ccccc4)CC[C@@H]32)C1 [Compound 1] was tested. Which IC50 did it give?
A: The IC50 was 0.05 to 0.1 µM.

Q: CCN(CC)C(=O)[C@H]1CC[C@H]2[C@@H]3CC[C@@H]4C[C@](C)(O)CC[C@@H]4[C@H]3CC[C@]12C [Compound 2] was tested. Which IC50 did it give?
A: The IC50 was 0.1 to 0.5 µM.

Q: How did the IC50 turn out when C[C@@]1(O)CC[C@H]2[C@H](CC[C@@H]3[C@@H]2CC[C@]2(C)[C@@H](C(=O)Nc4ccccc4)CC[C@@H]32)C1 [Compound 3] was run?
A: Its IC50 is under 0.01 µM.

Q: Which IC50 does the source give for CN(Cc1ccccc1)C(=O)[C@H]1CC[C@H]2[C@@H]3CC[C@@H]4C[C@](C)(O)CC[C@@H]4[C@H]3CC[C@]12C [Compound 4] here?
A: The IC50 was 0.01 to 0.05 µM.

Q: C[C@@]1(O)CC[C@H]2[C@H](CC[C@@H]3[C@@H]2CC[C@]2(C)[C@@H](C(=O)N4CCCCC4)CC[C@@H]32)C1 [Compound 5] was tested. Which IC50 did it give?
A: The IC50 was 0.05 to 0.1 µM.

Q: With C[C@@]1(O)CC[C@H]2[C@H](CC[C@@H]3[C@@H]2CC[C@]2(C)[C@@H](C(=O)N4CCCOCC4)CC[C@@H]32)C1 [Compound 6] as the compound, how does the IC50 read?
A: The IC50 was over 0.5 µM.

Q: How did the IC50 turn out when CN(C(=O)[C@H]1CC[C@H]2[C@@H]3CC[C@@H]4C[C@](C)(O)CC[C@@H]4[C@H]3CC[C@]12C)c1ccccc1 [Compound 7] was run?
A: The IC50 was over 0.5 µM.

Q: With C[C@@]1(O)CC[C@H]2[C@H](CC[C@@H]3[C@@H]2CC[C@]2(C)[C@@H](C(=O)NC4CCCCC4)CC[C@@H]32)C1 [Compound 8] as the compound, how does the IC50 read?
A: The IC50 was 0.05 to 0.1 µM.

Q: For CN(C(=O)[C@H]1CC[C@H]2[C@@H]3CC[C@@H]4C[C@](C)(O)CC[C@@H]4[C@H]3CC[C@]12C)C1CCCCC1 [Compound 9], which IC50 is on record?
A: Its IC50 is 0.1 to 0.5 µM.

Q: How did the IC50 turn out when CN(C(=O)[C@H]1CC[C@H]2[C@@H]3CC[C@@H]4C[C@](C)(O)CC[C@@H]4[C@H]3CC[C@]12C)C1CCOCC1 [Compound 10] was run?
A: The IC50 was 0.1 to 0.5 µM.

Q: With C[C@@]1(O)CC[C@H]2[C@H](CC[C@@H]3[C@@H]2CC[C@]2(C)[C@@H](C(=O)NCc4ccncc4)CC[C@@H]32)C1 [Compound 11] as the compound, how does the IC50 read?
A: Its IC50 is over 0.5 µM.

Q: With C[C@@]1(O)CC[C@H]2[C@H](CC[C@@H]3[C@@H]2CC[C@]2(C)[C@@H](C(=O)NCc4cccnc4)CC[C@@H]32)C1 [Compound 12] as the compound, how does the IC50 read?
A: The IC50 was over 0.5 µM.

Q: For CN(Cc1ccncc1)C(=O)[C@H]1CC[C@H]2[C@@H]3CC[C@@H]4C[C@](C)(O)CC[C@@H]4[C@H]3CC[C@]12C [Compound 13], which IC50 is on record?
A: Its IC50 is 0.1 to 0.5 µM.

Q: Which IC50 does the source give for CN(CC1CCOCC1)C(=O)[C@H]1CC[C@H]2[C@@H]3CC[C@@H]4C[C@](C)(O)CC[C@@H]4[C@H]3CC[C@]12C [Compound 14] here?
A: The IC50 was over 0.5 µM.

Q: For C[C@@]1(O)CC[C@H]2[C@H](CC[C@@H]3[C@@H]2CC[C@]2(C)[C@@H](C(=O)NCc4ccccn4)CC[C@@H]32)C1 [Compound 15], which IC50 is on record?
A: Its IC50 is 0.1 to 0.5 µM.

Q: For CN(Cc1cccnc1)C(=O)[C@H]1CC[C@H]2[C@@H]3CC[C@@H]4C[C@](C)(O)CC[C@@H]4[C@H]3CC[C@]12C [Compound 16], which IC50 is on record?
A: The IC50 was 0.1 to 0.5 µM.

Q: Which IC50 does the source give for C[C@@]1(O)CC[C@H]2[C@H](CC[C@@H]3[C@@H]2CC[C@]2(C)[C@@H](C(=O)NCC4CCCCC4)CC[C@@H]32)C1 [Compound 17] here?
A: The IC50 was 0.1 to 0.5 µM.

Q: For CN(CCc1ccccc1)C(=O)[C@H]1CC[C@H]2[C@@H]3CC[C@@H]4C[C@](C)(O)CC[C@@H]4[C@H]3CC[C@]12C [Compound 18], which IC50 is on record?
A: Its IC50 is 0.05 to 0.1 µM.

Q: For C[C@@]1(O)CC[C@H]2[C@H](CC[C@@H]3[C@@H]2CC[C@]2(C)[C@@H](C(=O)NCCc4ccccc4)CC[C@@H]32)C1 [Compound 19], which IC50 is on record?
A: The IC50 was 0.1 to 0.5 µM.

Q: C[C@@H](NC(=O)[C@H]1CC[C@H]2[C@@H]3CC[C@@H]4C[C@](C)(O)CC[C@@H]4[C@H]3CC[C@]12C)c1ccccc1 [Compound 20] was tested. Which IC50 did it give?
A: The IC50 was 0.1 to 0.5 µM.

Q: Which IC50 does the source give for C[C@@H](c1ccccc1)N(C)C(=O)[C@H]1CC[C@H]2[C@@H]3CC[C@@H]4C[C@](C)(O)CC[C@@H]4[C@H]3CC[C@]12C [Compound 21] here?
A: The IC50 was 0.01 to 0.05 µM.

Q: How did the IC50 turn out when CN(Cc1ccccn1)C(=O)[C@H]1CC[C@H]2[C@@H]3CC[C@@H]4C[C@](C)(O)CC[C@@H]4[C@H]3CC[C@]12C [Compound 22] was run?
A: The IC50 was over 0.5 µM.

Q: With C[C@@]1(O)CC[C@H]2[C@H](CC[C@@H]3[C@@H]2CC[C@]2(C)[C@@H](C(=O)N4CCCCCC4)CC[C@@H]32)C1 [Compound 23] as the compound, how does the IC50 read?
A: The IC50 was 0.1 to 0.5 µM.

Q: C[C@@]1(O)CC[C@H]2[C@H](CC[C@@H]3[C@@H]2CC[C@]2(C)[C@@H](C(=O)NCC4CCOCC4)CC[C@@H]32)C1 [Compound 24] was tested. Which IC50 did it give?
A: Its IC50 is over 0.5 µM.

Q: With C[C@@H]1CCCCN1C(=O)[C@H]1CC[C@H]2[C@@H]3CC[C@@H]4C[C@](C)(O)CC[C@@H]4[C@H]3CC[C@]12C [Compound 25] as the compound, how does the IC50 read?
A: The IC50 was 0.1 to 0.5 µM.

Q: Which IC50 does the source give for CN(CC1CCCCC1)C(=O)[C@H]1CC[C@H]2[C@@H]3CC[C@@H]4C[C@](C)(O)CC[C@@H]4[C@H]3CC[C@]12C [Compound 26] here?
A: The IC50 was 0.1 to 0.5 µM.

Q: C[C@H](NC(=O)[C@H]1CC[C@H]2[C@@H]3CC[C@@H]4C[C@](C)(O)CC[C@@H]4[C@H]3CC[C@]12C)c1ccccc1 [Compound 27] was tested. Which IC50 did it give?
A: The IC50 was 0.1 to 0.5 µM.

Q: C[C@H]1CCCCN1C(=O)[C@H]1CC[C@H]2[C@@H]3CC[C@@H]4C[C@](C)(O)CC[C@@H]4[C@H]3CC[C@]12C [Compound 28] was tested. Which IC50 did it give?
A: The IC50 was 0.1 to 0.5 µM.

Q: How did the IC50 turn out when C[C@@]1(O)CC[C@H]2[C@H](CC[C@@H]3[C@@H]2CC[C@]2(C)[C@@H](C(=O)NC4CCOCC4)CC[C@@H]32)C1 [Compound 29] was run?
A: The IC50 was over 0.5 µM.

Q: C[C@@]1(O)CC[C@H]2[C@H](CC[C@@H]3[C@@H]2CC[C@]2(C)[C@@H](C(=O)N4CC[C@@H](c5ccccc5)C4)CC[C@@H]32)C1 [Compound 30] was tested. Which IC50 did it give?
A: Its IC50 is 0.1 to 0.5 µM.

Q: How did the IC50 turn out when C[C@@]1(O)CC[C@H]2[C@H](CC[C@@H]3[C@@H]2CC[C@]2(C)[C@@H](C(=O)N4CC[C@H](c5ccccc5)C4)CC[C@@H]32)C1 [Compound 31] was run?
A: The IC50 was 0.05 to 0.1 µM.

Q: Which IC50 does the source give for C[C@H](c1ccccc1)N(C)C(=O)[C@H]1CC[C@H]2[C@@H]3CC[C@@H]4C[C@](C)(O)CC[C@@H]4[C@H]3CC[C@]12C [Compound 32] here?
A: The IC50 was 0.01 to 0.05 µM.

— patent US12655175B2, “C17, C20, and C21 substituted neuroactive steroids and their methods of use” (Sage Therapeutics, LLC, priority 2016, dated 2026)
